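Grown in 96-well plates, cells were treated for 48 hours with each compound at five concentrations. Insufficient inhibition: endpoint recorded as highest concentration tested. TGI: concentration producing complete growth inhibition.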
What was measured:
Test in all cases: DTP human tumour cell line panel, 48 h
HCT-15 colon = system: HCT-15 colon
HOP-92 NSCLC = system: HOP-92 NSCLC
SK-MEL-5 melanoma = system: SK-MEL-5 melanoma
HT29 colon = system: HT29 colon
MOLT-4 leukemia = system: MOLT-4 leukemia
T-47D breast = system: T-47D breast
HCT-116 colon = system: HCT-116 colon
NCI-H226 lung = system: NCI-H226 lung
MDA-MB-231 breast = system: MDA-MB-231 breast
MALME-3M melanoma = system: MALME-3M melanoma
SK-MEL-2 melanoma = system: SK-MEL-2 melanoma
NCI-H23 lung = system: NCI-H23 lung
NCI-H460 lung = system: NCI-H460 lung
NCI-H522 lung = system: NCI-H522 lung
OVCAR-3 ovarian = system: OVCAR-3 ovarian
PC-3 prostate = system: PC-3 prostate
HOP-62 NSCLC = system: HOP-62 NSCLC
UO-31 renal = system: UO-31 renal
IGROV1 ovarian = system: IGROV1 ovarian
RPMI-8226 leukemia = system: RPMI-8226 leukemia
M14 melanoma = system: M14 melanoma
UACC-257 melanoma = system: UACC-257 melanoma
SF-268 CNS = system: SF-268 CNS
CAKI-1 renal = system: CAKI-1 renal
NCI/ADR-RES ovarian = system: NCI/ADR-RES ovarian
MCF7 breast = system: MCF7 breast
A549 NSCLC = system: A549 NSCLC
UACC-62 melanoma = system: UACC-62 melanoma
MDA-MB-435 = system: MDA-MB-435
MDA-N = system: MDA-N
SF-539 CNS = system: SF-539 CNS
SW-620 colon = system: SW-620 colon
HL-60(TB) leukemia = system: HL-60(TB) leukemia
CCRF-CEM leukemia = system: CCRF-CEM leukemia
HS 578T breast = system: HS 578T breast
SR leukemia = system: SR leukemia
SN12C renal = system: SN12C renal
LOX IMVI melanoma = system: LOX IMVI melanoma
TK-10 renal = system: TK-10 renal
SF-295 CNS = system: SF-295 CNS
A498 renal = system: A498 renal
DU-145 prostate = system: DU-145 prostate
ACHN renal = system: ACHN renal
U251 CNS = system: U251 CNS
SK-MEL-28 melanoma = system: SK-MEL-28 melanoma
COLO 205 colon = system: COLO 205 colon
786-0 renal = system: 786-0 renal
SK-OV-3 ovarian = system: SK-OV-3 ovarian
OVCAR-4 ovarian = system: OVCAR-4 ovarian
RXF 393 renal = system: RXF 393 renal
BT-549 breast = system: BT-549 breast
KM12 colon = system: KM12 colon
SNB-19 CNS = system: SNB-19 CNS
SNB-75 CNS = system: SNB-75 CNS
OVCAR-5 ovarian = system: OVCAR-5 ovarian
EKVX NSCLC = system: EKVX NSCLC
OVCAR-8 ovarian = system: OVCAR-8 ovarian

Question: For `COc1cc(C=O)cc(/C=N/N=C/c2ccccc2O)c1O`, which TGI (HCT-15 colon) is on record?
Answer: > 100 µM

Question: And the TGI (HOP-92 NSCLC)?
Answer: 39.8 µM

Question: What about the TGI (SK-MEL-5 melanoma) of the same molecule?
Answer: > 100 µM

Question: And the TGI (HT29 colon)?
Answer: > 100 µM

Question: What about the TGI (MOLT-4 leukemia) of the same molecule?
Answer: 2.05 µM

Question: What about the TGI (T-47D breast) of the same molecule?
Answer: 28.2 µM

Question: And the TGI (HCT-116 colon)?
Answer: 67.3 µM

Question: What about the TGI (NCI-H226 lung) of the same molecule?
Answer: 58.6 µM

Question: And the TGI (MDA-MB-231 breast)?
Answer: 76.4 µM

Question: And the TGI (MALME-3M melanoma)?
Answer: 18.1 µM

Question: What about the TGI (SK-MEL-2 melanoma) of the same molecule?
Answer: 47 µM

Question: What about the TGI (NCI-H23 lung) of the same molecule?
Answer: 54 µM

Question: What about the TGI (NCI-H460 lung) of the same molecule?
Answer: > 100 µM

Question: And the TGI (NCI-H522 lung)?
Answer: > 100 µM

Question: And the TGI (OVCAR-3 ovarian)?
Answer: 65.9 µM

Question: What about the TGI (PC-3 prostate) of the same molecule?
Answer: 85.9 µM

Question: What about the TGI (HOP-62 NSCLC) of the same molecule?
Answer: > 100 µM

Question: What about the TGI (UO-31 renal) of the same molecule?
Answer: 99.1 µM

Question: And the TGI (IGROV1 ovarian)?
Answer: > 100 µM

Question: And the TGI (RPMI-8226 leukemia)?
Answer: 45.3 µM

Question: What about the TGI (M14 melanoma) of the same molecule?
Answer: 56.8 µM

Question: What about the TGI (UACC-257 melanoma) of the same molecule?
Answer: > 100 µM

Question: And the TGI (SF-268 CNS)?
Answer: > 100 µM

Question: What about the TGI (CAKI-1 renal) of the same molecule?
Answer: 49 µM

Question: And the TGI (NCI/ADR-RES ovarian)?
Answer: > 100 µM

Question: What about the TGI (MCF7 breast) of the same molecule?
Answer: > 100 µM

Question: And the TGI (A549 NSCLC)?
Answer: > 100 µM

Question: And the TGI (UACC-62 melanoma)?
Answer: > 100 µM

Question: What about the TGI (MDA-MB-435) of the same molecule?
Answer: > 100 µM

Question: What about the TGI (MDA-N) of the same molecule?
Answer: > 100 µM

Question: What about the TGI (SF-539 CNS) of the same molecule?
Answer: 34.2 µM

Question: What about the TGI (SW-620 colon) of the same molecule?
Answer: > 100 µM

Question: What about the TGI (HL-60(TB) leukemia) of the same molecule?
Answer: 0.0201 µM

Question: What about the TGI (CCRF-CEM leukemia) of the same molecule?
Answer: 70.3 µM

Question: What about the TGI (HS 578T breast) of the same molecule?
Answer: 10.3 µM

Question: And the TGI (SR leukemia)?
Answer: 51.2 µM

Question: What about the TGI (SN12C renal) of the same molecule?
Answer: 64.4 µM

Question: And the TGI (LOX IMVI melanoma)?
Answer: 54.5 µM

Question: What about the TGI (TK-10 renal) of the same molecule?
Answer: > 100 µM

Question: What about the TGI (SF-295 CNS) of the same molecule?
Answer: 8.16 µM

Question: What about the TGI (A498 renal) of the same molecule?
Answer: > 100 µM

Question: And the TGI (DU-145 prostate)?
Answer: > 100 µM

Question: What about the TGI (ACHN renal) of the same molecule?
Answer: 67.4 µM

Question: What about the TGI (U251 CNS) of the same molecule?
Answer: > 100 µM

Question: And the TGI (SK-MEL-28 melanoma)?
Answer: 73.8 µM

Question: And the TGI (COLO 205 colon)?
Answer: 82.9 µM

Question: What about the TGI (786-0 renal) of the same molecule?
Answer: 50.6 µM

Question: And the TGI (SK-OV-3 ovarian)?
Answer: 59.7 µM

Question: And the TGI (OVCAR-4 ovarian)?
Answer: > 100 µM

Question: What about the TGI (RXF 393 renal) of the same molecule?
Answer: > 100 µM

Question: And the TGI (BT-549 breast)?
Answer: 52.6 µM

Question: And the TGI (KM12 colon)?
Answer: > 100 µM

Question: What about the TGI (SNB-19 CNS) of the same molecule?
Answer: > 100 µM

Question: `O=C(NCCc1[nH]nc2c1C(=O)C=C(Nc1ccccc1)C2=O)OCc1ccccc1` was tested. Which TGI (HCT-15 colon) did it give?
Answer: > 100 µM

Question: What about the TGI (SNB-75 CNS) of the same molecule?
Answer: > 100 µM

Question: And the TGI (HOP-92 NSCLC)?
Answer: > 100 µM

Question: And the TGI (SK-MEL-5 melanoma)?
Answer: > 100 µM

Question: And the TGI (OVCAR-5 ovarian)?
Answer: > 100 µM

Question: And the TGI (HT29 colon)?
Answer: > 100 µM

Question: And the TGI (MOLT-4 leukemia)?
Answer: > 100 µM

Question: And the TGI (T-47D breast)?
Answer: > 100 µM

Question: What about the TGI (HCT-116 colon) of the same molecule?
Answer: > 100 µM

Question: What about the TGI (NCI-H226 lung) of the same molecule?
Answer: > 100 µM

Question: And the TGI (MDA-MB-231 breast)?
Answer: > 100 µM

Question: And the TGI (SK-MEL-2 melanoma)?
Answer: > 100 µM

Question: What about the TGI (NCI-H23 lung) of the same molecule?
Answer: > 100 µM

Question: What about the TGI (NCI-H460 lung) of the same molecule?
Answer: > 100 µM

Question: What about the TGI (NCI-H522 lung) of the same molecule?
Answer: > 100 µM

Question: What about the TGI (OVCAR-3 ovarian) of the same molecule?
Answer: > 100 µM

Question: What about the TGI (PC-3 prostate) of the same molecule?
Answer: > 100 µM

Question: What about the TGI (EKVX NSCLC) of the same molecule?
Answer: > 100 µM

Question: What about the TGI (UO-31 renal) of the same molecule?
Answer: > 100 µM

Question: And the TGI (IGROV1 ovarian)?
Answer: > 100 µM

Question: And the TGI (RPMI-8226 leukemia)?
Answer: > 100 µM

Question: And the TGI (M14 melanoma)?
Answer: > 100 µM

Question: What about the TGI (UACC-257 melanoma) of the same molecule?
Answer: > 100 µM

Question: And the TGI (SF-268 CNS)?
Answer: > 100 µM

Question: What about the TGI (CAKI-1 renal) of the same molecule?
Answer: > 100 µM

Question: What about the TGI (NCI/ADR-RES ovarian) of the same molecule?
Answer: > 100 µM

Question: And the TGI (MCF7 breast)?
Answer: > 100 µM

Question: What about the TGI (A549 NSCLC) of the same molecule?
Answer: > 100 µM

Question: And the TGI (UACC-62 melanoma)?
Answer: > 100 µM

Question: And the TGI (MDA-MB-435)?
Answer: > 100 µM

Question: And the TGI (MDA-N)?
Answer: > 100 µM

Question: What about the TGI (SF-539 CNS) of the same molecule?
Answer: > 100 µM

Question: And the TGI (SW-620 colon)?
Answer: > 100 µM

Question: What about the TGI (HL-60(TB) leukemia) of the same molecule?
Answer: > 100 µM

Question: And the TGI (CCRF-CEM leukemia)?
Answer: > 100 µM

Question: What about the TGI (HS 578T breast) of the same molecule?
Answer: > 100 µM

Question: What about the TGI (SR leukemia) of the same molecule?
Answer: > 100 µM

Question: And the TGI (SN12C renal)?
Answer: > 100 µM

Question: And the TGI (LOX IMVI melanoma)?
Answer: > 100 µM

Question: And the TGI (TK-10 renal)?
Answer: > 100 µM

Question: And the TGI (SF-295 CNS)?
Answer: > 100 µM

Question: And the TGI (A498 renal)?
Answer: > 100 µM

Question: And the TGI (DU-145 prostate)?
Answer: > 100 µM

Question: And the TGI (ACHN renal)?
Answer: > 100 µM

Question: What about the TGI (U251 CNS) of the same molecule?
Answer: > 100 µM

Question: And the TGI (OVCAR-8 ovarian)?
Answer: > 100 µM

Question: And the TGI (COLO 205 colon)?
Answer: > 100 µM

Question: And the TGI (786-0 renal)?
Answer: > 100 µM

Question: What about the TGI (SK-OV-3 ovarian) of the same molecule?
Answer: > 100 µM

Question: What about the TGI (OVCAR-4 ovarian) of the same molecule?
Answer: > 100 µM

Question: What about the TGI (RXF 393 renal) of the same molecule?
Answer: > 100 µM

Question: And the TGI (BT-549 breast)?
Answer: > 100 µM

Question: What about the TGI (KM12 colon) of the same molecule?
Answer: > 100 µM

Question: And the TGI (SNB-19 CNS)?
Answer: > 100 µM

Reference: PubChem BioAssay (NCI)
